Test results reported in patent EP1357114A1, “Substituted pyrimidin-2,4(1H,3H)-diones as inhibitors of Matrix Metalloproteinases (MMP)” (IBFB GmbH Privates Institut für biomedizinische Forschung …, priority 2002, dated 2003).

Experiments:
[1] = target: T1, katalytische Domäne der MMP-8 (Homo sapiens, UniProt P22894); experiment: Quantitative fluorescence assay for matrix metalloproteinases (cleavage of Mca-Pro-Leu-Gly-Leu-Dpa-Ala-Arg-NH2); assay type: biochemical
T1 construct: dass wir statt des Gesamtenzyms nur dessen enzymatisch aktive katalytische Domäne in E. coli klonierten; made in house; host or cells: E. coli
Description: Die Nutzung der katalytischen Domäne der MMP-8 als weiteres Testenzym wurde deshalb gewählt, weil es eine hohe Stabilität besitzt und darüber hinaus als aktives Enzym vorliegt. Es muß deshalb nicht aktiviert werden, was eine der häufigsten Fehlerursachen darstellt, da die zur Aktivierung genutzten Quecksilberverbindungen häufig mit dem Testsystem bzw. dem Enzym interferieren und dadurch die Messergebnisse verfälschen werden. Die Klonierungsstrategie gestalteten wir so, dass wir statt des Gesamtenzyms nur dessen enzymatisch aktive katalytische Domäne in E. coli klonierten. Mit der konstruierten katalytischen Domäne der MMP-8 erzielten wir ein stabiles, enzymatisch aktives und hochreines Enzym, welches für die Routineuntersuchungen der inhibitorischen Aktivität der synthetisierten Inhibitoren sehr gut geeignet war und die Messergebnisse der einzelnen Messserien miteinander vergleichbar machte. Die Klonierung und Expression der katalytischen Domäne der MMP-8 wurde entsprechend den Angaben von SCHNIERER et al. (Schnierer S, Kleine T, Gote T, Hillemann A, Knäuper V, Tschesche H: The recombinant catalytic domain of human neutrophil collagenase lacks type I collagen substrate specificity. Biochem Biophys Res Comm (1993) vol. 191 No. 2, 319-326) durchgeführt.
(§1) Durch enzymatische Spaltung des synthetischen Substrates Mca-Pro-Leu-Gly-Leu-Dpa-Ala-Arg-NH2 durch die jeweilige Kollagenase, wird die fluoreszente Gruppe Mca ((7-Methoxycoumarin-4-yl)acetyl) vom internen Quencher Dpa ((N-3-(2,4-dinitrophenyl)-L-2,3-diaminopropienyl) getrennt. Dabei erfolgt eine starke Zunahme der Fluoreszenz im Messansatz, die am Fluorimeter quantifiziert werden kann (λex 328 nm, λem 393 nm) und innerhalb der ersten Minuten linear verläuft. Eine gewisse Spezifität des Tests für Matrix-Metalloproteinasen ergibt sich einerseits aus der Aminosäuresequenz -Pro-Leu-Gly-Leu- im Substrat und andererseits durch die gewählten Inkubationsbedingungen. Matrix-Metalloproteinasen spalten das Substrat an der Bindung Gly-Leu. Gemessen wird die proteolytische Restaktivität vorinkubierter Ansätze von Enzym und Inhibitor, wobei die Substrat- und Enzymkonzentration konstant gehalten und die Inhibitorkonzentration variiert wurde. Es wurden für jeden getesteten Inhibitor drei Messreihen mit unterschiedlicher Substratkonzentration aufgenommen. Aus der zeitabhängigen Fluoreszenzzunahme wird die Enzymaktivität in Fluoreszenzeinheiten pro min berechnet. Die Bestimmung der Ki-Werte erfolgte graphisch nach der Methode von DIXON (1953) durch Auftragung der reziproken Reaktionsgeschwindigkeit 1/v (y-Achse) gegen Inhibitorkonzentration (x-Achse).
(§2) 1984 µl Messpuffer (100mM Tris-HCI pH 7,5, 100 mM NaCI, 10 mM CaCl2, 0,05% Brij 35 bzw. 50 mM MES-NaOH, pH 6.0, 10 mM CaCl2, 100 mM NaCI, 0.05% Brij 35 im Fall der KaDo MMP-3) 2 µl Inhibitor, gelöst in DMSO, bzw. DMSO allein (nichtinhibierender Ansatz) 4 µl Enzym • 5 min. Vorinkubation des Enzym-Inhibitor-Gemischs bei Raumtemperatur unter Rühren • Start der Reaktion mit 10 µl Substrat gelöst in DMSO • Aufzeichnung der zeitabhängigen Fluoreszenzzunahme über 2 - 10 min.

MMP-9 = target: T2, MMP-9 (Homo sapiens, UniProt P14780); experiment: as above; assay type: biochemical; conditions: bei 10 µM
T2 construct: Das latente Enzym wird durch 30 - 60 min; Inkubation bei 37°C mit 1/100 Vol. Trypsin (10 mg/ml) aktiviert; from tissue; host or cells: human buffy coat (blood leukocytes)
Method: Native MMP-9 wurde reproduzierbar und in guter Ausbeute und Reinheit aus humanem Buffy Coat gewonnen. Hierzu wird Buffy Coat mit 10% (v/v) Triton X-100 auf eine Endkonzentration von 0,4% gebracht, 30 min. auf Eis geschüttelt und dann 1 Vol. 2-fach Bindungspuffer (40 mM Tris-HCI pH 7,5, 10 mM CaCl2, 1 M NaCI, 0,2% (v/v) Triton X-100) hinzugefügt und weitere 30 min. auf Eis geschüttelt. Die Lösung wird 15 min. bei 16 000 Upm an einem SS-34 Rotor bei 4°C abzentrifugiert und über Glaswolle filtriert. Das Filtrat wird mit Gelatine-Agarose, welche mit Bindungspuffer äquilibriert wurde, gebatcht und 1 Std. auf Eis geschüttelt. Die beladene Gelatine-Agarose wird in eine Säule überführt und mit mindestens 10 Vol. Bindungspuffer proteinfrei gespült. Die Elution der gebundenen MMP-9 erfolgt mit 2 Gelvolumen Bindungspuffer plus 5% (v/v) DMSO. Das Eluat kann zum Puffer-Austausch und gleichzeitiger Abtrennung geringer Verunreinigungen an MMP-2 über eine Gelfiltration an Sephadex G-75 aufgetrennt werden. Hierzu wird der Puffer I (20 mM Tris-HCI pH 7,5, 5 mM CaCl2, 100 mM NaCI, 0,1% (v/v) Triton X-100) verwendet. Das so gewonnene Eluat enthällt MMP-9 in den drei bekannten Zustandsformen: Monomer, Homodimer, Heterodimer. Die Reinheit des Enzyms beträgt ca. 90%, wobei die restlichen Fremdproteine Fibronektin und äußerst geringe Mengen an TIMP's sind. Das latente Enzym wird durch 30 - 60 min. Inkubation bei 37°C mit 1/100 Vol. Trypsin (10 mg/ml) aktiviert. Trypsin wird durch Zugabe von 1 mM PMSF oder mit einem spezifischen Inhibitor (TKI) gehemmt.
as §1, §2

T2 sequence (P14780 107-707 limits assumed): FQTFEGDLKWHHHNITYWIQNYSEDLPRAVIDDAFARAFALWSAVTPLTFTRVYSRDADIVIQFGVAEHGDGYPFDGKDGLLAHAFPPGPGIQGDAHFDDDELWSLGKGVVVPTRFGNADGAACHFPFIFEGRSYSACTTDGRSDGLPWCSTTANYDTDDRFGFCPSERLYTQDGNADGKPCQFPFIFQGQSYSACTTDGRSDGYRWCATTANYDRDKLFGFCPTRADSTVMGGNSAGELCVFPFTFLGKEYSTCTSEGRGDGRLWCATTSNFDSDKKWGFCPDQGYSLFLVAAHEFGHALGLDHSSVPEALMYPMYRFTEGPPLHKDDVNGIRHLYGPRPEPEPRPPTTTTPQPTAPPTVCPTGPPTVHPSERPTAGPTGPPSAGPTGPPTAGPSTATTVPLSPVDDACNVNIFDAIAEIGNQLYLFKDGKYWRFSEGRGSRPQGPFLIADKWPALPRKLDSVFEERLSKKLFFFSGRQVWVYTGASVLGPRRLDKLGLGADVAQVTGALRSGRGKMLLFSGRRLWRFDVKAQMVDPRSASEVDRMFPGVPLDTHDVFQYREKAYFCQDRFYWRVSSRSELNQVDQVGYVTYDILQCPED
T1 sequence (P22894 100-262 limits assumed): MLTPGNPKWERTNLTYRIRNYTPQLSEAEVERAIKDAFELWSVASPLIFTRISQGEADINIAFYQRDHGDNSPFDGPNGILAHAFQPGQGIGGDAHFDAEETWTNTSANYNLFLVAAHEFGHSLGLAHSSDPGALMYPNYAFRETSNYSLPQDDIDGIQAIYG

Compound | Ki ([1]; Dixon plot) | MMP-9 Hemmung (MMP-9) | MMP-8 Hemmung ([1]; bei 10 µM)
CC(S)(CS)Cn1c(=O)[nH]c2ccccc2c1=O (racemic) [Beispiel 2, (R,S)-3-(2,3-Dimercapto-2-methylpropyl)chinazolin-2,4-(1H,3H)dion] | 60 µM | 10% Hemmung bei 10 µM | 
Cc1cccc2c(=O)n(CC(S)CS)c(=O)[nH]c12 (racemic) [Beispiel 6, (R,S)-3-(2,3-Dimercaptopropyl)-8-methyl-chinazolin-2,4-(1H,3H)dion] |  | 55% Hemmung bei 10 µM | 43% Hemmung bei 10 µM
